Test results published in paper PMC5467912, “Asymmetric regulation of quorum-sensing receptors drives autoinducer-specific gene expression programs in Vibrio cholerae” (PLoS Genetics, 2017).
“And” between values parts separate entries of the source, which are not always exact repeats. Equal values may be shown once.

Tests used:
CqsS = molecular target: T1, CqsS (Vibrio cholerae serotype O1, UniProt Q9KM66); test: cell-based; details: for Light production: strain WN1102; for EC50: light production, reporter strain WN1102, 4 h at 30 °C; for RLU: Strain WN1102
T1 construct: endogenous in cells; host or cells: V. cholerae WN1102 (ΔcqsA ΔluxQ/pBB1), derived from C6706str2
T1 sequence (Q9KM66 whole entry, looked up): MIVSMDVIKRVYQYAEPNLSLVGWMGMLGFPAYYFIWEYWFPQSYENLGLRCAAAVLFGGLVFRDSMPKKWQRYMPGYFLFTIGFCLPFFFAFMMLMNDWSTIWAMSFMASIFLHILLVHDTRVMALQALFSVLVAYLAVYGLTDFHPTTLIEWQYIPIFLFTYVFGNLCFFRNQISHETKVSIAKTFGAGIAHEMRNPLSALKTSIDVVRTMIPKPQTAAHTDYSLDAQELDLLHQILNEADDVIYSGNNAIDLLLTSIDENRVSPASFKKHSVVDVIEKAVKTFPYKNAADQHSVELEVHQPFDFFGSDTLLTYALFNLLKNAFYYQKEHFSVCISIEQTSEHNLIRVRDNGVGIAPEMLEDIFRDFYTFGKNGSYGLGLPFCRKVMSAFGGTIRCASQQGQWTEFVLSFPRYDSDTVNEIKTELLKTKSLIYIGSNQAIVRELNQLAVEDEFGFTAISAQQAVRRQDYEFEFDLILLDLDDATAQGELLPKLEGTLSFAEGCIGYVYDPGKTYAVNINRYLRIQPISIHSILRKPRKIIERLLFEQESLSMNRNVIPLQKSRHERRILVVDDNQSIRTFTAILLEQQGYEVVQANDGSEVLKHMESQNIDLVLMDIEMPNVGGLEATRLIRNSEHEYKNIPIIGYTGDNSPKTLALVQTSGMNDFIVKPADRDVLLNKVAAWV

qrr4 = type: cell-based; details: LuxS-CqsA- strain + autoinducer; Rep 1-3

SMILES | Light production (CqsS; Agonist 0.0119209 nM) | Light production (CqsS; Agonist 0.0476837 nM) | Light production (CqsS; Agonist 0.190735 nM) | Light production (CqsS; Agonist 0.762939 nM) | Light production (CqsS; Agonist 3.05176 nM) | Light production (CqsS; Agonist 12.207 nM) | Light production (CqsS; Agonist 48.8281 nM) | Light production (CqsS; Agonist 195.312 nM) | Light production (CqsS; Agonist 781.25 nM) | Light production (CqsS; Agonist 3125 nM) | Light production (CqsS; Agonist 12500 nM) | Light production (CqsS; Agonist 50000 nM) | EC50 (CqsS) [nM] | other results
CCCn1nnnc1NCc1ccc(N(CC)CC)cc1 [#2] | 10481 RLU and 11875 RLU and 20274 RLU | 11765 RLU and 13923 RLU and 13822 RLU | 21584 RLU and 21176 RLU and 18763 RLU | 32000 RLU and 26047 RLU and 22456 RLU | 51860 RLU and 50633 RLU and 45087 RLU | 312292 RLU and 263721 RLU and 253642 RLU | 5147778 RLU and 5005576 RLU and 4962410 RLU | 29151080 RLU and 28675780 RLU and 30844170 RLU | 78218700 RLU and 84853010 RLU and 92706410 RLU | 94808130 RLU and 116685800 RLU and 113209800 RLU | 93694120 RLU and 114540600 RLU and 119989100 RLU | 88291390 RLU and 103481200 RLU and 109394800 RLU | 26 | –
CCCn1nnnc1NCc1ccc(N2CCCC2)cc1 [#3] | – | 13269 RLU and 14460 RLU and 11456 RLU | 18051 RLU and 20632 RLU and 16089 RLU | 27556 RLU and 29263 RLU and 25287 RLU | 53410 RLU and 57320 RLU and 53409 RLU | 598613 RLU and 571778 RLU and 545574 RLU | 17729790 RLU and 16188200 RLU and 18180520 RLU | 52331460 RLU and 53359300 RLU and 52422750 RLU | 72153380 RLU and 70458940 RLU and 74315090 RLU | 80807740 RLU and 76653980 RLU and 72594050 RLU | 69868890 RLU and 66115120 RLU and 65607710 RLU | 41204600 RLU and 38225840 RLU and 37314420 RLU | 14 | fold less potent than compound #1 (CqsS; EC50 comparison): approximately 4 fold
CCCn1nnnc1NCc1ccc(C(C)C)cc1 [#4] | 12293 RLU and 13200 RLU and 7500 RLU | 18202 RLU and 15106 RLU and 14409 RLU | 28023 RLU and 25417 RLU and 23860 RLU | 52174 RLU and 73300 RLU and 48409 RLU | 246211 RLU and 267975 RLU and 261469 RLU | 3790123 RLU and 3428043 RLU and 3340791 RLU | 19838010 RLU and 18010170 RLU and 17447160 RLU | 61742000 RLU and 56850120 RLU and 54681960 RLU | 104719700 RLU and 101045100 RLU and 95346500 RLU | 119868200 RLU and 118607300 RLU and 107846700 RLU | 122328400 RLU and 118368100 RLU and 108047500 RLU | 103497500 RLU and 101746000 RLU and 97356600 RLU | 7 | –
CCn1nnnc1NCc1ccc(C(C)C)cc1 [#5] | 22342 RLU and 16526 RLU and 20189 RLU | 18351 RLU and 14922 RLU and 16393 RLU | 24222 RLU and 32473 RLU and 30802 RLU | 43006 RLU and 46460 RLU and 51236 RLU | 215673 RLU and 187636 RLU and 197250 RLU | 3692444 RLU and 3488605 RLU and 3831864 RLU | 25448660 RLU and 29298250 RLU and 27925710 RLU | 71515280 RLU and 80802780 RLU and 79358510 RLU | 95077870 RLU and 111974800 RLU and 120784000 RLU | 107051300 RLU and 126535100 RLU and 129294500 RLU | 98996430 RLU and 113608500 RLU and 123733600 RLU | 91459320 RLU and 107555000 RLU and 106482900 RLU | 8 | –
c1cc(N2CCCC2)ccc1CNc1nnn[nH]1 [#6] | – | – | – | – | – | – | – | – | – | – | – | – | – | CqsS agonist activity (CqsS; S10 Fig): loses all activity; RLU (CqsS; agonist 0.762939 nM): 2.15E+03 RLU and 2.08E+03 RLU and 4.10E+03 RLU; RLU (CqsS; agonist 12.207 nM): 2.13E+03 RLU and 2.35E+03 RLU and 4.10E+03 RLU; RLU (CqsS; agonist 48.8281 nM): 2.14E+03 RLU and 2.26E+03 RLU and 4.12E+03 RLU; RLU (CqsS; agonist 195.312 nM): 6.45E+03 RLU and 4.19E+03 RLU and 4.17E+03 RLU; RLU (CqsS; agonist 50000 nM): 6.42E+03 RLU and 4.10E+03 RLU and 6.49E+03 RLU
CCC(C)NC(=O)Cc1ccc(-c2ccccc2)cc1 (centres unmarked) [#7] | 14566 RLU and 10667 RLU and 7878.8 RLU | 16089 RLU and 13267 RLU and 10570 RLU | 18864 RLU and 15385 RLU and 12553 RLU | 24094 RLU and 21702 RLU and 17241 RLU | 32638 RLU and 25814 RLU and 24906 RLU | 48047 RLU and 41582 RLU and 31818 RLU | 81242 RLU and 67619 RLU and 51844 RLU | 183313 RLU and 159529 RLU and 160500 RLU | 10770860 RLU and 8237516 RLU and 9173585 RLU | 90855490 RLU and 84011930 RLU and 82291170 RLU | 122744100 RLU and 104793600 RLU and 103467300 RLU | 104239700 RLU and 95731630 RLU and 92148540 RLU | 403 | –
O=C(Cc1ccc(-c2ccccc2)cc1)NC1CCC1 [#8] | 17900 RLU and 10791 RLU and 14350 RLU | 11100 RLU and 15000 RLU and 11881 RLU | 26990 RLU and 16080 RLU and 18824 RLU | 24950 RLU and 23905 RLU | 48627 RLU and 40000 RLU and 32706 RLU | 75176 RLU and 69890 RLU and 67191 RLU | 1115870 RLU and 738497 RLU and 676886 RLU | 40840900 RLU and 39570670 RLU and 37676260 RLU | 91907700 RLU and 100480500 RLU and 102019900 RLU | 92588910 RLU and 118830300 RLU and 113054700 RLU | 89613410 RLU and 99998040 RLU and 103728600 RLU | 78185000 RLU and 81850050 RLU and 75936470 RLU | 53 | –
O=C(Cc1ccc(-c2ccccn2)cc1)NC1CCCC1 [#9] | 8704.7 RLU and 9014.1 RLU and 7722.8 RLU | 11317 RLU and 7830.7 RLU and 9751.2 RLU | 10595 RLU and 11217 RLU and 6363.6 RLU | 13636 RLU and 11364 RLU and 8044.7 RLU | 16879 RLU and 13647 RLU and 11676 RLU | 22994 RLU and 16264 RLU and 15148 RLU | 32335 RLU and 27200 RLU and 23011 RLU | 55190 RLU and 44311 RLU and 39030 RLU | 108075 RLU and 97949 RLU and 93072 RLU | 7362143 RLU and 7832704 RLU and 8085455 RLU | 55377500 RLU and 53818320 RLU and 53583010 RLU | 93123590 RLU and 90629940 RLU and 93211830 RLU | 1720 | –
CCCCCCCCCC(=O)[C@@H](O)CC [CAI] | – | – | – | – | – | – | – | – | – | – | – | – | – | RLU, average per biological replicate (Totals) (qrr4): 2.55E+08 RLU and 2.82E+08 RLU and 3.63E+08 RLU
